Laboratory results as given in PMC8745237, “Multiple Antimicrobial Effects of Hybrid Peptides Synthesized Based on the Sequence of Ribosomal S1 Protein from Staphylococcus aureus” (International Journal of Molecular Sciences, 2022).

Legend:
[1] = test system: E. coli (K12 strain); experiment: Preliminary testing of antimicrobial properties on agar, E. coli; assay type: cell-based, Escherichia coli
Source text: (§1) Table S4. Results of preliminary testing the antimicrobial properties of the VVVHINGGKF (V10F), GVVVRLANFG (G10G),
(§2) VQGLVHISEI (V10I), QQVNVKILGI (Q10I) peptides against S. aureus, MRSA, B. cereus, and E. coli bacteria cells on agar. […]

[2] = test system: MRSA (SA 180-F strain); experiment: Preliminary testing of antimicrobial properties on agar, MRSA SA 180-F; assay type: cell-based, Methicillin-resistant Staphylococcus aureus
Source text: as §1, §2

[3] = test system: S. aureus (209P strain); experiment: Preliminary testing of antimicrobial properties on agar, S. aureus; assay type: cell-based, Staphylococcus aureus
Source text: as §1
VQGLVHISEI (V10I), QQVNVKILGI (Q10I) peptides against S. aureus, MRSA, B. cereus, and E. coli bacteria cells on agar.

[4] = test system: B. cereus (IP-5812 strain); experiment: Preliminary testing of antimicrobial properties on agar, B. cereus; assay type: cell-based, Bacillus cereus
Source text: as §1, §2

[5] = test system: MRSA (ATCC 43300 strain); experiment: Preliminary testing of antimicrobial properties on agar, MRSA ATCC 43300; assay type: cell-based, Methicillin-resistant Staphylococcus aureus
Source text: as §1, §2
MRSA (ATCC 43300 Non-AMP Non-AMP Non-AMP Non-AMP Non-AMP

GVVVRLANFG [G10G] was tested, and the “antimicrobial properties on agar” value ([1]; peptide 1 µM) was “Non-AMP”, the “antimicrobial properties on agar” value ([1]; peptide 10 µM) was “Non-AMP” and the “antimicrobial properties on agar” value ([1]; peptide 100 µM) was “Non-AMP”. For the same sequence, the “antimicrobial properties on agar” value ([1]; peptide 1000 µM) was “Non-AMP”, the “antimicrobial properties on agar” value ([1]; peptide 10000 µM) was “Non-AMP” and the “antimicrobial properties on agar” value ([2]; peptide 1 µM) was “Non-AMP”. For the same sequence, the “antimicrobial properties on agar” value ([2]; peptide 10 µM) was “Non-AMP”, the “antimicrobial properties on agar” value ([2]; peptide 100 µM) was “Non-AMP” and the “antimicrobial properties on agar” value ([2]; peptide 1000 µM) was “Non-AMP”. The “antimicrobial properties on agar” value ([2]; peptide 10000 µM) was “Non-AMP”, the “antimicrobial properties on agar” value ([3]; peptide 1 µM) was “Non-AMP” and the “antimicrobial properties on agar” value ([3]; peptide 10 µM) was “Non-AMP”. For the same sequence, the “antimicrobial properties on agar” value ([3]; peptide 100 µM) was “Non-AMP”, the “antimicrobial properties on agar” value ([3]; peptide 1000 µM) was “Non-AMP” and the “antimicrobial properties on agar” value ([3]; peptide 10000 µM) was “AMP”. For the same sequence, the “antimicrobial properties on agar” value ([4]; peptide 1 µM) was “Non-AMP”, the “antimicrobial properties on agar” value ([4]; peptide 10 µM) was “Non-AMP” and the “antimicrobial properties on agar” value ([4]; peptide 100 µM) was “Non-AMP”. For the same sequence, the “antimicrobial properties on agar” value ([4]; peptide 1000 µM) was “Non-AMP”, the “antimicrobial properties on agar” value ([4]; peptide 10000 µM) was “Non-AMP” and the “antimicrobial properties on agar” value ([5]; peptide 1 µM) was “Non-AMP”. For the same sequence, the “antimicrobial properties on agar” value ([5]; peptide 10 µM) was “Non-AMP”, the “antimicrobial properties on agar” value ([5]; peptide 100 µM) was “Non-AMP” and the “antimicrobial properties on agar” value ([5]; peptide 1000 µM) was “Non-AMP”. The “antimicrobial properties on agar” value ([5]; peptide 10000 µM) was “Non-AMP”.
